Measurements published in PMC4138991, “Building a Better Dynasore: The Dyngo Compounds Potently Inhibit Dynamin and Endocytosis” (Traffic (Copenhagen, Denmark), 2013).
“Also recorded” adds a separate entry of the source. Where two headings read alike, the source gives them in different places.

How the values were obtained:
[1] = system: CT-555 uptake in NIH3T3 cells; assay type: cell-based; details: NIH3T3, 20, 50 or 80 μM
HeLa cells [2] = test: Trypan blue exclusion cell viability and proliferation assay; assay type: cell-based; details: 20 h exposure, with or without serum
Procedure: Cell viability and membrane integrity was assessed by the Trypan Blue exclusion assay. Cells were seeded into 10 cm dish at a density of 1 × 10^5 cells per dish. […] This was carried out in the presence and absence of FBS.

Calyx of Held = test: Membrane capacitance measurements at the Calyx of Held in brain slices; assay type: cell-based, mice; details: for SVE (decay of membrane capacitance): direct application by puffing pipette: 300 μM 4a, 800 μM dynasore
[3] = system: Tfn-A594 uptake in U2OS cells; test: Automated quantitative CME assay: Tfn-A594 uptake; assay type: cell-based; details: for recovery of normal non-neuronal CME after wash out: 10 μM for 30 min; for fold less potent CME inhibition in presence of serum protein: 5 or 10% FBS or 1% BSA versus none; for IC50: Homo sapiens
Procedure: To determine whether the Dyngo compounds are widespread cell‐permeable and endocytosis inhibitors, CME of fluorescent Tfn was compared in an automated quantitative endocytosis assay in U2OS cells. The assay consisted of over 1200 cells under serum‐free conditions; after preincubation with each analog for 30 min the uptake of fluorescent Tfn was measured. We refer to this endocytosis as non‐neuronal CME to distinguish it from CME of synaptic vesicles in presynaptic terminals of neurons, which is referred to as synaptic vesicle endocytosis (SVE). In these cells, Tfn uptake is presumed to be mediated by dynamin II, because this is the only isoform of dynamin that they express, as determined by western blot (Figure S6). […] There was no apparent correlation between in vitro and in‐cell activity, with potent dynamin‐active compounds like 1a and 14a having no effect on non‐neuronal CME (Table 1). This might be explained by low membrane permeability of these analogs, their cellular metabolism or rapid cellular efflux mechanisms.
Quantitative analysis of the inhibition of Alexa 594‐Tfn endocytosis in U2OS cells was performed on large numbers of serum‐starved cells as described 10. Synaptic vesicle recycling in cultured CGNs was monitored using FM1‐43 as described 57 (see Supporting Information). Dynamin‐independent endocytosis was measured using internalization of CT in NIH3T3 cells (using Tfn as a control) as described previously 58 with minor changes (see Supporting Information). The average number of cells for each data point was ˜1200. IC50 values were calculated using GraphPad Prism 5 and data were expressed as mean ± 95% confidence interval (CI) for three wells and ˜1200 cells.

HeLa cells [4] = test: LDH toxicity assay; assay type: cell-based; details: 8-h exposure, with or without serum
Procedure: Cytotoxicity was assayed by determination of lactate dehydrogenase (LDH) activity. HeLa cells were seeded in 96 well plates as described previously (11) Asynchronously growing cells were treated in the presence or absence of MiTMAB or the indicated Dyngo compound in the presence and absence of FCS at the indicated concentration for 8h. The supernatant (50 μL) was added to 100 μL of LDH assay reagent (Sigma- Aldrich) and the reaction was allowed to develop for 20 min. Absorbance was measured at 490 nm and 690 nm (plate background absorbance). Values were normalized to drug/media background value and toxicity was calculated as a % of a 100% lysed cell control.

[5] = system: dynamin I SAI activity (rings); test: Self-assembly-induced (SAI) dynamin GTPase activity; assay type: biochemical, sheep; details: presence of Tween, 500 nM dynamin
Procedure: The Malachite Green colorimetric GTPase assay was as described 10. Dynamin I activity was measured in its SAI activity state or was stimulated by three different methods. As each stimulus activates dynamin to different extents, each assay required different dynamin concentrations. First, maximal dynamin activity was stimulated by sonicated PS liposomes 10. Purified dynamin I (10–20 nM, diluted in: 6 mM Tris–HCl, 20 mM NaCl and 0.01% Tween 80, pH 7.4) was incubated in 96‐well plates in GTPase buffer (5 mM Tris–HCl, 10 mM NaCl, 2 mM Mg^2+, 0.05% Tween 80, pH 7.4, 1 µg/mL leupeptin and 0.1 mM PMSF) and GTP 0.3 mM in the presence of test compound for 30 min at 37°C in a final assay volume of 150 μL. Reactions were terminated with 10 μL of 0.5 M ethylenediaminetetraacetic acid (EDTA) pH 7.4 and Malachite Green solution (40 μL: 2% w/v ammonium molybdate tetrahydrate, 0.15% w/v malachite green and 4 M HCl) was added for 5 min. Second, dynamin (20 nM) was stimulated by 10 µg/mL of taxol‐stabilized preformed bovine brain microtubules (Cytoskeleton, Inc) using the same protocol. […] Finally, dynamin (500 nM) SAI activity was measured using high concentrations of dynamin, which promote its cooperative self‐assembly into rings (but not helices) 26. […] After the Vmax and Km values were determined, the data were transformed using the Lineweaver–Burke equation, 1/v = 1/Vmax + (Km/Vmax)(1/[S]).

[6] = then wash out up to 1 h / 60 min
[7] = Tfn-A594 uptake, U2OS, 30-min preincubation, serum-free, read-out: CME IC50
[8] = U2OS, 1 h incubation, 0.1% BSA, read-out: CME IC50, 0.1% BSA
[9] = U2OS, 1 h incubation, 1% BSA, read-out: CME IC50, 1% BSA
[10] = U2OS, 1 h incubation, 1% FBS, read-out: CME IC50, 1% FBS
[11] = U2OS, 1 h incubation, 5% FBS, read-out: CME IC50, 5% FBS
[12] = U2OS, 1 h incubation, 10% FBS, read-out: CME IC50, 10% FBS
[13] = U2OS, 1 h incubation, absence of FBS or BSA, read-out: CME IC50, 1 h

Compound | effect on dynamin-independent endocytosis of cholera toxin [1] | cell membrane integrity / viability by trypan blue exclusion (HeLa cells [2]) | exocytosis (capacitance jump) (Calyx of Held; 300 μM 4a in puffing pipette) | SVE (decay of membrane capacitance) (Calyx of Held) | recovery of normal non-neuronal CME after wash out ([3]; then 10 min after removal) | recovery of normal non-neuronal CME after wash out [3, 6] | fold less potent CME inhibition in presence of serum protein [3] | IC50 [3, 7] | IC50 [3, 8] | IC50 [3, 9] | IC50 [3, 10] | IC50 [3, 11] | IC50 [3, 12] | IC50 [3, 13] | preincubation time required for complete abolition of Tfn uptake ([3]; U2OS, 10 μM) | shortest preincubation at which inhibition of CME was observed ([3]; U2OS, 10 μM) | generalized cytotoxicity by LDH activity (HeLa cells [4]) | inhibition of SAI (self-assembly) activity [5] | times more potent than dynasore in CME assay ([3]; same conditions, U2OS Tfn uptake)
O=C(N/N=C/c1cc(O)c(O)cc1O)c1cc2ccccc2cc1O [4a, (E)-3-Hydroxy-N'-(2,4,5-trihydroxybenzylidene) -2-naphthohydrazide] | no effect; also recorded: much less effect; also recorded: does not block | do not affect cell viability | did not acutely affect exocytosis | complete blockade of SVE | 70% | over 80% | at least 20 fold | 5.7 ± 1 µM | 44 µM | 83 ± 12 µM | 23.7 ± 3.2 µM | 102 µM | 115 ± 7.5 µM | 6.3 ± 3.6 µM | 30 min | 5 min | did not exhibit generalized cytotoxicity | not at all inhibited; also recorded: without effect | 
O=C(N/N=C/c1cccc(O)c1O)c1cc2ccccc2cc1O [6a, (E)-N'-(2,3-Dihydroxybenzylidene)-3-hydroxy-2-naphthohydrazide] | no effect | do not affect cell viability |  |  |  | 70% | at least 20 fold | 5.8 ± 0.8 µM | 46 µM | 281 µM | 16.5 µM | 78 ± 7 µM | 108 ± 15 µM | 3.3 ± 0.6 µM |  |  | did not exhibit generalized cytotoxicity |  | six times more potent
O=C(N/N=C/c1ccc(O)c(O)c1)c1cc2ccccc2cc1O [Dynasore, (E)-N'-(3,4-Dihydroxybenzylidene)-3-hydroxy-2-naphthohydrazide] | much less effect | do not affect cell viability |  | inhibits SVE |  |  |  | 34.7 ± 5.1 µM | 277 µM | 235 µM | 57.8 µM | 650 µM | 532 µM | 22.2 ± 6 µM |  |  | did not exhibit generalized cytotoxicity | did not block | 
